“And” between values parts separate entries of the source, which are not always exact repeats. Equal entries are not always repeated. Inconclusive results and toxic doses are left out.
Tested on: CD2F1 mice, L1210 leukemia sc, survival T/C
Experiment: NCI In Vivo Anticancer Drug Screen. Data for tumor model L1210 Leukemia (subcutaneous) in CD2F1 (CDF1) mice
Conditions: endpoint: median survival time, higher = longer survival
Summary of the method: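 Read-out: survival or tumor size. Value = treated (T) / vehicle control (C). Transplantable tumor in mice.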

[1] = dose: 1.0 mg/kg/injection, schedule: Q01DX009 (ip), vehicle: saline
[2] = dose: 2.0 mg/kg/injection, schedule: Q01DX009 (ip), vehicle: saline
[3] = dose: 2.0 mg/kg/injection, schedule: Q01DX009 (sc), vehicle: saline
[4] = dose: 4.0 mg/kg/injection, schedule: Q01DX009 (ip), vehicle: saline
[5] = dose: 8.0 mg/kg/injection, schedule: Q01DX009 (sc), vehicle: saline
[6] = dose: 16.0 mg/kg/injection, schedule: Q01DX009 (sc), vehicle: saline

In the case of `COc1cccc2c1C(=O)c1c(O)c3c(c(O)c1C2=O)C[C@@](O)(C(=O)CO)C[C@@H]3OC1CC(N)C(O)C(C)O1` (stereo not given in full), the T/C (dose: 0.25 mg/kg/injection, schedule: Q01DX009 (ip), vehicle: saline) is reported as 101 % of control and 98 % of control, the T/C (dose: 0.25 mg/kg/injection, schedule: Q01DX009 (sc), vehicle: saline) is reported as 98 % of control and the T/C (dose: 0.5 mg/kg/injection, schedule: Q01DX009 (ip), vehicle: saline) is reported as 103 % of control and 107 % of control and 98 % of control. The T/C (dose: 0.5 mg/kg/injection, schedule: Q01DX009 (sc), vehicle: saline) was 101 % of control, the T/C [1] was 100 % of control and 106 % of control and 123 % of control and the T/C (dose: 1.0 mg/kg/injection, schedule: Q01DX009 (sc), vehicle: saline) was 110 % of control. The T/C [2] was 111 % of control and 115 % of control and 123 % of control, the T/C [3] was 117 % of control and 120 % of control and the T/C (dose: 2.5 mg/kg/injection, schedule: Q01DX009 (sc), vehicle: saline) was 114 % of control. The T/C (dose: 3.0 mg/kg/injection, schedule: Q01DX009 (sc), vehicle: saline) was 116 % of control, the T/C (dose: 3.5 mg/kg/injection, schedule: Q01DX009 (sc), vehicle: saline) was 120 % of control and the T/C [4] was 110 % of control and 92 % of control and 97 % of control. The T/C (dose: 5.0 mg/kg/injection, schedule: Q01DX009 (sc), vehicle: saline) was 116 % of control, the T/C (dose: 6.0 mg/kg/injection, schedule: Q01DX009 (sc), vehicle: saline) was 102 % of control and the T/C [5] was 113 % of control and 89 % of control.
For `CC(=O)OC1COC(NC(=O)N(CCCl)N=O)C(OC(C)=O)C1OC(C)=O` (stereo not given), the T/C (dose: 0.75 mg/kg/injection, schedule: Q01DX009 (ip), vehicle: saline with Tween-80) was 104 % of control, the T/C (dose: 1.5 mg/kg/injection, schedule: Q01DX009 (ip), vehicle: saline with Tween-80) was 102 % of control and the T/C (dose: 3.0 mg/kg/injection, schedule: Q01DX009 (ip), vehicle: saline with Tween-80) was 102 % of control and 122 % of control. For the same compound, the T/C (dose: 12.0 mg/kg/injection, schedule: Q01DX009 (ip), vehicle: saline with Tween-80) was 158 % of control and 297 % of control.
`CC(=O)Oc1ccc[nH]c1=O` was tested, and the T/C (dose: 16.7 mg/kg/injection, schedule: Q03HX027 (ip), vehicle: saline with Tween-80) was 107 % of control, the T/C (dose: 33.0 mg/kg/injection, schedule: Q03HX027 (ip), vehicle: saline with Tween-80) was 104 % of control and the T/C (dose: 50.0 mg/kg/injection, schedule: Q01DX009 (ip), vehicle: saline with Tween-80) was 98 % of control. For the same compound, the T/C (dose: 66.7 mg/kg/injection, schedule: Q03HX027 (ip), vehicle: saline with Tween-80) was 96 % of control, the T/C (dose: 100.0 mg/kg/injection, schedule: Q01DX009 (ip), vehicle: saline with Tween-80) was 98 % of control and the T/C (dose: 133.0 mg/kg/injection, schedule: Q03HX027 (ip), vehicle: saline with Tween-80) was 105 % of control. The T/C (dose: 200.0 mg/kg/injection, schedule: Q01DX009 (ip), vehicle: saline with Tween-80) was 98 % of control, the T/C (dose: 266.0 mg/kg/injection, schedule: Q03HX027 (ip), vehicle: saline with Tween-80) was 108 % of control and the T/C (dose: 800.0 mg/kg/injection, schedule: Q01DX009 (ip), vehicle: saline with Tween-80) was 117 % of control.
With `N[C@H](C(=O)O)[C@H]1ON=C(Cl)[C@@H]1O` the T/C [6] was 114 % of control, the T/C (dose: 64.0 mg/kg/injection, schedule: Q01DX009 (sc), vehicle: saline) was 152 % of control and the T/C (dose: 1024.0 mg/kg/injection, schedule: Q01DX009 (sc), vehicle: saline) was 120 % of control.
With `Oc1ccc(F)c2cccnc12` the T/C (dose: 39.0 mg/kg/injection, schedule: Q01DX Z (sc), vehicle: other) was 100 % of control, the T/C (dose: 65.0 mg/kg/injection, schedule: Q01DX Z (sc), vehicle: other) was 100 % of control and the T/C (dose: 108.0 mg/kg/injection, schedule: Q01DX Z (sc), vehicle: other) was 100 % of control. The T/C (dose: 180.0 mg/kg/injection, schedule: Q01DX Z (sc), vehicle: other) was 100 % of control.
In the case of `OCC1OC(n2cnc3c(=S)nc[nH]c32)C(O)C1O` (stereo not given), the T/C (dose: 130.0 mg/kg/injection, schedule: Q01DX Z (sc), vehicle: other) is reported as 177 % of control, the T/C (dose: 216.0 mg/kg/injection, schedule: Q01DX Z (sc), vehicle: other) is reported as 183 % of control and the T/C (dose: 360.0 mg/kg/injection, schedule: Q01DX Z (sc), vehicle: other) is reported as 177 % of control.
With `Clc1ccc(CSc2ncnc3nc[nH]c23)cc1` the T/C (dose: 38.9 mg/kg/injection, schedule: Q01DX Z (sc), vehicle: methylcellulose (MC)) was 100 % of control, the T/C (dose: 64.8 mg/kg/injection, schedule: Q01DX Z (sc), vehicle: methylcellulose (MC)) was 100 % of control and the T/C (dose: 108.0 mg/kg/injection, schedule: Q01DX Z (sc), vehicle: methylcellulose (MC)) was 100 % of control. For the same compound, the T/C (dose: 180.0 mg/kg/injection, schedule: Q01DX Z (sc), vehicle: methylcellulose (MC)) was 100 % of control, the T/C (dose: 300.0 mg/kg/injection, schedule: Q01DX Z (sc), vehicle: methylcellulose (MC)) was 100 % of control and the T/C (dose: 500.0 mg/kg/injection, schedule: Q01DX Z (sc), vehicle: methylcellulose (MC)) was 104 % of control.
For `COC(=O)C1(F)C(=O)NC(=O)NC1OC` (stereo not given), the T/C (dose: 50.0 mg/kg/injection, schedule: Q01DX009 (ip), vehicle: Klucel (hydroxypropylcellulose) (HPC)) was 110 % of control, the T/C (dose: 100.0 mg/kg/injection, schedule: Q01DX009 (ip), vehicle: Klucel (hydroxypropylcellulose) (HPC)) was 120 % of control and the T/C (dose: 120.0 mg/kg/injection, schedule: Q01DX009 (ip), vehicle: Klucel (hydroxypropylcellulose) (HPC)) was 163 % of control. For the same compound, the T/C (dose: 200.0 mg/kg/injection, schedule: Q01DX009 (ip), vehicle: Klucel (hydroxypropylcellulose) (HPC)) was 159 % of control, the T/C (dose: 333.33 mg/kg/injection, schedule: Q01DX009 (ip), vehicle: Klucel (hydroxypropylcellulose) (HPC)) was 120 % of control and the T/C (dose: 400.0 mg/kg/injection, schedule: Q01DX009 (ip), vehicle: Klucel (hydroxypropylcellulose) (HPC)) was 105 % of control. The T/C (dose: 555.56 mg/kg/injection, schedule: Q01DX009 (ip), vehicle: Klucel (hydroxypropylcellulose) (HPC)) was 110 % of control and the T/C (dose: 800.0 mg/kg/injection, schedule: Q01DX009 (ip), vehicle: Klucel (hydroxypropylcellulose) (HPC)) was 98 % of control.
With `CCOC(C)C(/C=N/NC(N)=S)=NNC(N)=S` (stereo not given) the T/C (dose: 65.0 mg/kg/injection, schedule: Q01DX Z (sc), vehicle: carboxymethylcellulose (CMC)) was 110 % of control, the T/C (dose: 108.0 mg/kg/injection, schedule: Q01DX Z (sc), vehicle: carboxymethylcellulose (CMC)) was 110 % of control and the T/C (dose: 180.0 mg/kg/injection, schedule: Q01DX Z (sc), vehicle: carboxymethylcellulose (CMC)) was 120 % of control. The T/C (dose: 300.0 mg/kg/injection, schedule: Q01DX Z (sc), vehicle: carboxymethylcellulose (CMC)) was 110 % of control.
For `Cc1c(N)nc([C@H](CC(N)=O)NC[C@H](N)C(N)=O)nc1C(=O)N[C@H](C(=O)N[C@H](C)[C@@H](O)[C@H](C)C(=O)N[C@H](C(=O)NCCc1nc(-c2nc(C(=O)NCCC[S+](C)C)cs2)cs1)[C@@H](C)O)C(OC1OC(CO)C(O)C(O)C1OC1OC(CO)C(O)C(OC(N)=O)C1O)c1cnc[nH]1` (stereo not given in full), the T/C [1] was 100 % of control, the T/C [2] was 100 % of control and 101 % of control and 107 % of control and the T/C [3] was 110 % of control. For the same compound, the T/C [4] was 100 % of control and 105 % of control and 109 % of control, the T/C (dose: 4.0 mg/kg/injection, schedule: Q01DX009 (sc), vehicle: saline) was 102 % of control and the T/C (dose: 8.0 mg/kg/injection, schedule: Q01DX009 (ip), vehicle: saline) was 100 % of control and 107 % of control and 109 % of control. For the same compound, the T/C [5] was 102 % of control, the T/C (dose: 16.0 mg/kg/injection, schedule: Q01DX009 (ip), vehicle: saline) was 104 % of control and 107 % of control and 112 % of control and the T/C [6] was 106 % of control. For the same compound, the T/C (dose: 32.0 mg/kg/injection, schedule: Q01DX009 (ip), vehicle: saline) was 102 % of control and 109 % of control and 112 % of control, the T/C (dose: 32.0 mg/kg/injection, schedule: Q01DX009 (sc), vehicle: saline) was 100 % of control and the T/C (dose: 64.0 mg/kg/injection, schedule: Q01DX009 (ip), vehicle: saline) was 112 % of control.
With `Nc1nc2ncn(O)c2c(=O)[nH]1` the T/C (dose: 4.5 mg/kg/injection, schedule: Q01DX009 (ip), vehicle: other) was 278 % of control, the T/C (dose: 7.5 mg/kg/injection, schedule: Q01DX009 (ip), vehicle: other) was 164 % of control and the T/C (dose: 12.5 mg/kg/injection, schedule: Q01DX009 (ip), vehicle: other) was 268 % of control. The T/C (dose: 20.83 mg/kg/injection, schedule: Q01DX009 (ip), vehicle: other) was 113 % of control.
`CCN(CC)CCNc1ccc(C)c2sc3ccccc3c(=O)c12` was tested, and the T/C (dose: 25.0 mg/kg/injection, schedule: Q01DX009 (ip), vehicle: saline) was 116 % of control, the T/C (dose: 100.0 mg/kg/injection, schedule: Q01DX009 (ip), vehicle: saline) was 158 % of control and the T/C (dose: 200.0 mg/kg/injection, schedule: Q01DX009 (ip), vehicle: saline) was 87 % of control.

Source: PubChem BioAssay AID258 (DTP/NCI, 2004)
